# Key:
# Assay in all cases: biochemical
# Set-up in all cases: DiscoveRx KINOMEscan competition binding, percent of DMSO control signal at 100 nM
# Settings in all cases: read-out: Fig. 4a / Percent Control / Compound 1; percent of DMSO control, competition binding
# DYRK1B = DYRK1B (Homo sapiens, UniProt Q9Y463)
# Method: (§1) The kinase selectivity profile was performed by using the DiscoveRx KINOMEscan platform. […] Test compounds were prepared as 40× stocks in 100% DMSO and directly diluted into the assay. The results were defined as a percentage of signal between the negative (DMSO, 100% control) and the positive (control compound, 0% control) control, which was calculated as follows: percent control = [(test compound signal − positive control signal)/(negative control signal − positive control signal)] × 100.
# LTK = LTK (Homo sapiens, UniProt P29376)
# Method: as §1
# DYRK1A = DYRK1A (Homo sapiens, UniProt Q13627)
# PIM3 = PIM3 (Homo sapiens, UniProt Q86V86)
# EPHA3 = EPHA3 (Homo sapiens, UniProt P29320)
# YSK4 = target: T1, YSK4 (Homo sapiens, UniProt Q56UN5)
# T1 construct: gene MAP3K19
# TBK1 = TBK1 (Homo sapiens, UniProt Q9UHD2)
# TBK1, sequence (Q9UHD2 whole entry): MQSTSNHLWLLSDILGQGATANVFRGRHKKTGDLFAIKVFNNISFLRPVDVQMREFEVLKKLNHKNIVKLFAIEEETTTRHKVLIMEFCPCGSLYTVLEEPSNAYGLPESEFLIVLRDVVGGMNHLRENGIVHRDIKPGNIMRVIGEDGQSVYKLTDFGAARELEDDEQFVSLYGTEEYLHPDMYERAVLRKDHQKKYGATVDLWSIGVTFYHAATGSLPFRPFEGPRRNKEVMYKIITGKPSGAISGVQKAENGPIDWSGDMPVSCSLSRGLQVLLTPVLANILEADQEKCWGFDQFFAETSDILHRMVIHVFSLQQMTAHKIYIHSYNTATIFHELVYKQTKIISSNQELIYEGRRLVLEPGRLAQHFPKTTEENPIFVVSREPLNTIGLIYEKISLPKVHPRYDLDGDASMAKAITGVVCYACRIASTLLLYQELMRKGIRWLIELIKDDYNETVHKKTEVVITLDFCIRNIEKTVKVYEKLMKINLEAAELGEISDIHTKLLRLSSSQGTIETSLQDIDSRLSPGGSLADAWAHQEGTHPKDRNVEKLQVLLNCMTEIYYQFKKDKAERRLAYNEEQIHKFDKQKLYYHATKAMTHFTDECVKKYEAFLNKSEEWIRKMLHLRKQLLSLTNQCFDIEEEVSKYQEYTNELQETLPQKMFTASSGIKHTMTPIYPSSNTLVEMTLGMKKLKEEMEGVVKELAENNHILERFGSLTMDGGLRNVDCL
# EPHA3, sequence (P29320 whole entry): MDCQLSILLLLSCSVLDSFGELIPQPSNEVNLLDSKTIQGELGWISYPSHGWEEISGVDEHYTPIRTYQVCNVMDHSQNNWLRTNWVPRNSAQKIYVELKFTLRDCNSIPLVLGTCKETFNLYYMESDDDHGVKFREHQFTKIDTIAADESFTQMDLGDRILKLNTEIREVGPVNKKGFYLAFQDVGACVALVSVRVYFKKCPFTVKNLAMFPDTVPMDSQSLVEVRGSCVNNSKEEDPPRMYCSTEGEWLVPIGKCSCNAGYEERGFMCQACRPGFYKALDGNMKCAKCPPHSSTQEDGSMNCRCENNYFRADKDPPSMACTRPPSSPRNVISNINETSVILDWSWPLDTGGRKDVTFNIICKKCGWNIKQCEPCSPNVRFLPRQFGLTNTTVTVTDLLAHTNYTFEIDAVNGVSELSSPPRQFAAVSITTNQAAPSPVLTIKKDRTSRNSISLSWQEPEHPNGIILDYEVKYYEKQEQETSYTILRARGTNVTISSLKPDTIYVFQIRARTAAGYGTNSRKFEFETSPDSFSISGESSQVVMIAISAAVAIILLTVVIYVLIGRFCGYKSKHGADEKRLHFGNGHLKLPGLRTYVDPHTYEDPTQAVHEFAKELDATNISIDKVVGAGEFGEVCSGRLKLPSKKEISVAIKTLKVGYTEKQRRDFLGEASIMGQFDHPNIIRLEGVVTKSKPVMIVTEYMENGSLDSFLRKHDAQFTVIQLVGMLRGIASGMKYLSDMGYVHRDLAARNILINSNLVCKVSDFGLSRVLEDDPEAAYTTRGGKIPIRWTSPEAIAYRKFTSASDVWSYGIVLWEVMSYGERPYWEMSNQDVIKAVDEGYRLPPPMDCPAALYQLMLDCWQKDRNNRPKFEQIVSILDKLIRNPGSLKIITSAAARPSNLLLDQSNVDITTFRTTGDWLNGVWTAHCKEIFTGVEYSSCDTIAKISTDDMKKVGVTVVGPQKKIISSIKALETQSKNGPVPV
# DYRK1B, sequence (Q9Y463 whole entry): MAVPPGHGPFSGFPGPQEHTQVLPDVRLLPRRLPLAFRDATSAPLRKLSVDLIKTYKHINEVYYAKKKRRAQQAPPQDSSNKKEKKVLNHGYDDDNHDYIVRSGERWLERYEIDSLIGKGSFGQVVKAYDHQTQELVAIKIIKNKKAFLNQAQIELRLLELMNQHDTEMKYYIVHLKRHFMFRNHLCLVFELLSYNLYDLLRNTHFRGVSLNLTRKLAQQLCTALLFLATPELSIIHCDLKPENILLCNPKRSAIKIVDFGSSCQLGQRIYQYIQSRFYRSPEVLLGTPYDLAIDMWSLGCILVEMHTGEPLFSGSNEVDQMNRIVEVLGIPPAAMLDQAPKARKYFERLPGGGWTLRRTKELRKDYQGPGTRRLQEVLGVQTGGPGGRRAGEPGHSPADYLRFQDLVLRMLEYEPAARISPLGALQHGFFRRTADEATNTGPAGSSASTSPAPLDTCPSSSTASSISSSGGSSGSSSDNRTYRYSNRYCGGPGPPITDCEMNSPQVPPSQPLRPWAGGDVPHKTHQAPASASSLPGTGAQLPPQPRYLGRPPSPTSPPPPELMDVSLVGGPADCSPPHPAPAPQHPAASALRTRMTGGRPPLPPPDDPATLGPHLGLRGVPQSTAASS
# T1 sequence (Q56UN5 whole entry): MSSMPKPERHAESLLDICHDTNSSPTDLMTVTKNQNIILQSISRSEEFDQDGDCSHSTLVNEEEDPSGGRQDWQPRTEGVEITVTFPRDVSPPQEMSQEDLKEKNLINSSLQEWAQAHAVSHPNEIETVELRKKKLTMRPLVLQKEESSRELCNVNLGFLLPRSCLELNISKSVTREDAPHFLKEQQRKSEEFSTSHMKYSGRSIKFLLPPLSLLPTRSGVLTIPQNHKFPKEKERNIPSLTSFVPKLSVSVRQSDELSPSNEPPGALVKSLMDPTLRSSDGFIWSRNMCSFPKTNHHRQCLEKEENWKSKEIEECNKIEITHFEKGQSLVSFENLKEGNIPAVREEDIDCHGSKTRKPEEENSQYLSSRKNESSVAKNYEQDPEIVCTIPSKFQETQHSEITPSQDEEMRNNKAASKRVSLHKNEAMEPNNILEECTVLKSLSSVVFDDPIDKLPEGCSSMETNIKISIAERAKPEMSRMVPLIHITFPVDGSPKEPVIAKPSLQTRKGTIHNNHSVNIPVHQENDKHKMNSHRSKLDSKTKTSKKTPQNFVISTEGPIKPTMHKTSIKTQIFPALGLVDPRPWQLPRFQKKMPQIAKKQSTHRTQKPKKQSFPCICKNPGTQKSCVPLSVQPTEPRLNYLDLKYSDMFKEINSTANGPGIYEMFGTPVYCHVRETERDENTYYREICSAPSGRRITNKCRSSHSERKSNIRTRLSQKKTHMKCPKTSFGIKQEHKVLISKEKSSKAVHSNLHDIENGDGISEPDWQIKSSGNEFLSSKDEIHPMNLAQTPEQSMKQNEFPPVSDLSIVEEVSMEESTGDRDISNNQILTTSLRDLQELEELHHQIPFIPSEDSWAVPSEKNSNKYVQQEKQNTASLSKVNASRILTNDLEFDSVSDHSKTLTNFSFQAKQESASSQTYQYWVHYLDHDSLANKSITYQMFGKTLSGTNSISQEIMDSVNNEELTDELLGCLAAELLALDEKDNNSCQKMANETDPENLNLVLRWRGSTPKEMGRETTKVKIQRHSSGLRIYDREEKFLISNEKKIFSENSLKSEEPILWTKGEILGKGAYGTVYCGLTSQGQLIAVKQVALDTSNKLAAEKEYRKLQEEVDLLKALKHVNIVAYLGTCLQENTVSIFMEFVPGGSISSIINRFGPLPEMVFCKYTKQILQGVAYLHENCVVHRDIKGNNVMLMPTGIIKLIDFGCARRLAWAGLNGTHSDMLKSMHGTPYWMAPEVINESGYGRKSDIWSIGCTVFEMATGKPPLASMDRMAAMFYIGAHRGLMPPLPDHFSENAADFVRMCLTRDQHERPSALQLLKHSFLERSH
# LTK, sequence (P29376 whole entry): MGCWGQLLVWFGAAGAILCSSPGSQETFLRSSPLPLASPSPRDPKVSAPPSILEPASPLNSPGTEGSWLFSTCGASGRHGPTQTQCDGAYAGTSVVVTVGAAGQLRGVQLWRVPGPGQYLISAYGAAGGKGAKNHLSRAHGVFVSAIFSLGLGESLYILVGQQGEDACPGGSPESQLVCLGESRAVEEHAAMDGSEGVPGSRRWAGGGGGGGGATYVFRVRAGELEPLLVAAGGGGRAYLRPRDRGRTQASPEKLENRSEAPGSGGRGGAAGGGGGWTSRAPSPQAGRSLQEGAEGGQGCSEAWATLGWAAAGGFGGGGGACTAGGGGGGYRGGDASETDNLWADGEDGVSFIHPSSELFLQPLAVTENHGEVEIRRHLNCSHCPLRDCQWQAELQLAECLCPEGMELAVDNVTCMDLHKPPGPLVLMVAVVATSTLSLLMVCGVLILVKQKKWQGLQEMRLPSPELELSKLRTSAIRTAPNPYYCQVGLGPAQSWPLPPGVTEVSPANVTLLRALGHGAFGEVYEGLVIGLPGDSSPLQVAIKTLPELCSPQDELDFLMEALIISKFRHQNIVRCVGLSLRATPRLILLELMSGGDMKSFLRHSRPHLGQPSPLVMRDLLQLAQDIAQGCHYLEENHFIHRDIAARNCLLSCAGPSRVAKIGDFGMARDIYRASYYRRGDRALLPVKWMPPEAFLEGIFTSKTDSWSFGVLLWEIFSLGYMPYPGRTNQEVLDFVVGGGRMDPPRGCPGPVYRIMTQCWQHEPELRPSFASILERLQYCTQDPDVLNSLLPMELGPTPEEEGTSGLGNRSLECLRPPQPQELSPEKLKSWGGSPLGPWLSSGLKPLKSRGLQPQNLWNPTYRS
smiles,measurement,setting,value
Cc1cnc2nc1Nc1cccc(c1)COCc1cc(ccc1OCCN1CCCC1)N2 [Compound 1],remaining binding at 0.1 µM,DYRK1B,100%
same,remaining binding at 0.1 µM,LTK,100%
same,remaining binding at 0.1 µM,DYRK1A,88%
same,remaining binding at 0.1 µM,PIM3,100%
same,remaining binding at 0.1 µM,EPHA3,85%
same,remaining binding at 0.1 µM,YSK4,11%
same,remaining binding at 0.1 µM,TBK1,76%
